The target of series [1] is KIT D816V (Homo sapiens, UniProt P10721, D816V). Description: KIT (D816V) mutant biochemical enzymatic activity inhibition assay (EZReader 2 mobility shift) at APPKM for ATP. Particulars: 0.3 nM enzyme, 20 μM ATP (APPKM), 1 μM Src tide, 25° C., 60 minutes; read-out: Kit D816V @ ATP Km IC50. An excerpt: PDGFRα and KIT enzymatic activity was monitored using the Perkin Elmer electrophoretic mobility shift technology platform, the EZReader 2.
Within the linear, steady-state phase of the kinase enzymatic reaction, the mixed pool of phosphorylated (product) and non-phosphorylated (substrate) peptides was passed through the microfluidic system of the PerkinElmer EZ Reader 2, under an applied electric potential difference. The presence of the phosphate group on the product peptide provided a difference in mass and charge between that of the substrate peptide, resulting in a separation of the substrate and product pools in the sample (Perrin et al., Expert Opin Drug Discovery 2010, Jan. 5(1):51-63).
As the product and substrate peptide mixture passes the lasers within the instrument, these pools are detected (λex=488 nm, λem=568 nm) and resolved as separate peaks. The ratio between these peaks reflects the activity of the compound at that concentration, in that well, under those conditions.
All test articles were dissolved in 100% DMSO at a stock concentration of 10 mM. A 100×, 10-point, 4-fold serial dilution of all test compounds was created in 100% DMSO, starting at a relevant concentration, usually 1 mM. A volume of 130 nL of each concentration was transferred to the relevant well of a 384-well assay plate (Greiner 781 201) using a TTPLabtech Mosquito nano-liter dispenser. Using the Multidrop, the remaining constituents of the reaction were then added to the 130 nL of compound as follows:
The reaction was stopped by the addition of 70 μl of Stop buffer (100 mM HEPES pH 7.5, 0.015% Brij 35, 35 mM EDTA and 0.2% of Coating Reagent 3, Caliper Lifesciences). The plate was read on a Caliper EZReader 2. For biochemical D816V and D842V activity, the following designations are used: ≤0.30 nM=A; ≥0.31 and <1.4 nM=B; ≥1.4 nM=C; and ND=not determined.

A short description of series [2]: Brain penetration in rats: brain to plasma ratio (Kp,brain). It counts as in vivo. Particulars: rat; Sprague-Dawley rats (3/compound), IV infusion 1 mg/kg/hr over 8 hours, plasma and brain homogenate at 24 hours, Cbrain/Cplasma, mean. An excerpt: To understand the brain penetration, brain to plasma ratios of the compounds were obtained in Sprague-Dawley (SD) rats. In vivo equilibrium distribution between blood and brain in preclinical species such as rats is a commonly used parameter to evaluate brain penetration. Kp,brain is the ratio of concentrations in brain and blood (Cbrain/Cplasma). The compound's passive diffusion characteristics, its affinity for membrane transporters at the blood-brain barrier (BBB), and the relative drug binding affinity differences between the plasma proteins and brain tissue influence the Kp,brain. Compounds with Kp,brain smaller than 0.1 have restricted access to the CNS, whereas compounds with Kp,brain greater than 0.3-0.5 are considered to have good brain penetration and compounds with Kp,brain greater than 1 freely cross the BBB (Expert Opin. Drug Delivery (2016) 13 (01): 85-92).
The brain penetration of the compounds disclosed herein was measured in Sprague-Dawley rats (3/compound). The animals received IV infusion of 1 mg/kg/hr of the compound over 8 hours via jugular vein cannulation. At 24 hours, blood was collected via tail vein bleeding or cardiac puncture (under anesthesia) and centrifuged to obtain plasma samples. Brain tissues were collected and homogenized with phosphate-buffered saline (PBS). […]

Series [3] can be described thus: Unbound brain to plasma ratio (Kpuu,brain), from brain and plasma concentrations and equilibrium dialysis unbound fractions. Particulars: Sprague-Dawley, brain homogenate / plasma (unbound), intravenous, 1 mg/kg/hr; rat; calculated from brain and plasma concentrations and fu,brain (brain homogenate equilibrium dialysis), mean. Format: in vivo, Sprague-Dawley rats. As to the method:
The brain penetration of the compounds disclosed herein was measured in Sprague-Dawley rats (3/compound). The animals received IV infusion of 1 mg/kg/hr of the compound over 8 hours via jugular vein cannulation. At 24 hours, blood was collected via tail vein bleeding or cardiac puncture (under anesthesia) and centrifuged to obtain plasma samples. Brain tissues were collected and homogenized with phosphate-buffered saline (PBS). The concentrations of the compounds were obtained in the plasma and brain homogenates by LC-MS/MS analysis.
Rat plasma protein binding of the tested compounds were evaluated in vitro using an equilibrium dialysis method. The tested compounds were assessed in 100% plasma in a dialysis block for 5 hours at 37° C. Samples from the donor and receiver sides were analyzed by LC-MS/MS. Plasma protein bound and unbound fractions were calculated using the following equations— […]
where: [Donor]5h is measured donor concentration at 5-hour; [Received]5h is measured receiver concentration at 5-hour; fb* is bound fraction determined from plasma; fu,p* is calculated unbound fraction for plasma. […]
Similarly, rat brain protein binding of the tested compounds was also evaluated in vitro using equilibrium dialysis method. […] of the compound was assessed in brain homogenate in a dialysis block for 5 hours at 37° C. Samples from the donor and receiver sides were analyzed by LC-MS/MS. […]

Molecules are shown by their SMILES. Where a name gives a salt, the structure may show the parent alone.

KIT D816V, sequence (P10721 26-976 D816V): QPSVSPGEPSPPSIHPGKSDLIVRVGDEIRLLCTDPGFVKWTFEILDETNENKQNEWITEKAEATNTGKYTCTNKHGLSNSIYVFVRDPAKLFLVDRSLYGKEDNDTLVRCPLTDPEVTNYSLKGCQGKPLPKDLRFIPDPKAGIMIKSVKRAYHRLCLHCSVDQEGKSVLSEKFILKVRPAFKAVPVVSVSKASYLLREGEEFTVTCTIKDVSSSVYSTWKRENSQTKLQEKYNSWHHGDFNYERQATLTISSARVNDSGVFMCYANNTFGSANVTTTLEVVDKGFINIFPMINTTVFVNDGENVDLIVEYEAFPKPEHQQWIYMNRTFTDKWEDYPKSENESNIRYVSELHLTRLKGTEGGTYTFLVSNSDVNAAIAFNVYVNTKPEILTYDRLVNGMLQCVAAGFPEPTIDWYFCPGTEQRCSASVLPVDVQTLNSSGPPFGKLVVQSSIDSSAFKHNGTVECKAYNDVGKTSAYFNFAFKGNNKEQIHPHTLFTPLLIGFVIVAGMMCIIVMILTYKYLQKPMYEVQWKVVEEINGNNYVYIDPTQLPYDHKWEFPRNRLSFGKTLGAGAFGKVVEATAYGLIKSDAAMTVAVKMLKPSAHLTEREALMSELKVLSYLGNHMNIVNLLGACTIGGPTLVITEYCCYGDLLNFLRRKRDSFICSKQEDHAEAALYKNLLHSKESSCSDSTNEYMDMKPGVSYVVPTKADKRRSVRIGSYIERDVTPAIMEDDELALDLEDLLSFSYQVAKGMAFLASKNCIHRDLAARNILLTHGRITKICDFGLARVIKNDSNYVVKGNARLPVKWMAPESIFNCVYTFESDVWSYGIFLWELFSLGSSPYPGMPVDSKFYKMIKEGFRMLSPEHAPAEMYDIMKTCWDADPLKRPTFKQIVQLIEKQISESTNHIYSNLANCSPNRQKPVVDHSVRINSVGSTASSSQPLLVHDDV

Consider `C[C@](N)(c1ccc(F)cc1)c1cnc(N2CCN(c3ncnc4[nH]c(-c5cnn(CC6COC6)c5)cc34)CC2)nc1` [Compound 6, (S)-1-(4-fluorophenyl)-1-(2-(4-(6-(1-(oxetan-3-ylmethyl)-1H-pyrazol-4-yl)-7H-pyrrolo[2,3-d]pyrimidin-4-yl)piperazin-1-yl)pyrimidin-5-yl)ethan-1-amine hydrochloride], for which the IC50 in series [1] lay in the range of 0.31 to 1.4 nM. The same measure, in the same setting: with `C[C@H](O)Cn1cc(-c2cc3c(N4CCN(c5ncc([C@@](C)(N)c6ccc(F)cc6)cn5)CC4)ncnc3[nH]2)cn1` [Compound 5, (S)-1-(4-(4-(4-(5-((S)-1-amino-1-(4-fluorophenyl)ethyl)pyrimidin-2-yl)piperazin-1-yl)-7H-pyrrolo[2,3-d]pyrimidin-6-yl)-1H-pyrazol-1-yl)propan-2-ol hydrochloride] the figure was 0.31 to 1.4 nM. For the compound `C[C@](N)(c1ccc(F)cc1)c1cnc(C2=CCN(c3ncnn4cc(-c5cnn(CCO)c5)cc34)CC2)nc1` [Compound 1, (S)-2-(4-(4-(4-(5-(1-amino-1-(4-fluorophenyl)ethyl)pyrimidin-2-yl)-3,6-dihydropyridin-1(2H)-yl)pyrrolo[2,1-f][1,2,4]triazin-6-yl)-1H-pyrazol-1-yl)ethan-1-ol], in series [2], the concentration ratio (Kp) at 24 h turned out to be 0.133. In addition, in series [3], the Kp uu at 24 h is 0.017. In addition, the concentration for half-maximal inhibition (IC50) in series [1] was 0.31 to 1.4 nM. On the same counts, the results for `C[C@](N)(c1ccc(F)cc1)c1cnc(N2CCN(c3ncnc4[nH]c(-c5cnn(CCO)c5)cc34)CC2)nc1.Cl` [Compound 2, (S)-2-(4-(4-(4-(5-(1-amino-1-(4-fluorophenyl)ethyl)pyrimidin-2-yl)piperazin-1-yl)-7H-pyrrolo[2,3-d]pyrimidin-6-yl)-1H-pyrazol-1-yl)ethan-1-ol hydrochloride] are 0.045, 0.01 and at most 0.3 nM.

`C[C@@H](O)Cn1cc(-c2cc3c(N4CCN(c5ncc([C@@](C)(N)c6ccc(F)cc6)cn5)CC4)ncnc3[nH]2)cn1` [Compound 4, (R)-1-(4-(4-(4-(5-((S)-1-amino-1-(4-fluorophenyl)ethyl)pyrimidin-2-yl)piperazin-1-yl)-7H-pyrrolo[2,3-d]pyrimidin-6-yl)-1H-pyrazol-1-yl)propan-2-ol]: the half-maximal inhibitory concentration (IC50) in series [1] is 0.31 to 1.4 nM. The same measure, in the same setting: the value for `C[C@](N)(c1ccc(F)cc1)c1cnc(N2CCN(c3ncnc4[nH]c(-c5cnn(C6COC6)c5)cc34)CC2)nc1` [Compound 3, (S)-1-(4-fluorophenyl)-1-(2-(4-(6-(1-(oxetan-3-yl)-1H-pyrazol-4-yl)-7H-pyrrolo[2,3-d]pyrimidin-4-yl)piperazin-1-yl)pyrimidin-5-yl)ethan-1-amine] was at most 0.3 nM.

These data come from patent US20240010652A1, “COMPOSITIONS AND METHODS FOR TREATING KIT- AND PDGFRA-MEDIATED DISEASES” (Blueprint Medicines Corporation, priority 2020, published 2024).
